US8993282B2, “Carotenoid fermentation method” (JX Nippon Oil & Energy Corporation, priority 2008, dated 2015)

Experiments:
[1] = system: Paracoccus sp. strain L-25; assay: Glutamate supplementation, test tube culture, lycopene-producing mutant, carotenoid by HPLC; assay type: cell-based
Description: (§1) In the examples, carotenoids were quantified by high performance liquid chromatography (HPLC) as follows.
(§2) Two columns of Wakosil-II 5 SIL-100 (φ4.6×250 mm) (Wako Pure Chemical Industries, Ltd., Japan) were connected to each other for use as a column. Elution was performed by flowing an n-hexane-tetrahydrofuran-methanol mixed solution (40:20:1), which was a mobile phase, at a flow rate of 1.0 mL/minute at a constant temperature around room temperature. The measurement was performed as follows. Samples were each dissolved in tetrahydrofuran and then diluted 100-fold with the mobile phase. Each dilution was injected in a volume of 20 μL. The column eluate was detected at a wavelength of 470 nm. As a reference for quantification, astaxanthin (SIGMA, Cat. No. A9335) was used. The astaxanthin concentration of the reference solution was determined using the following equation after measuring the absorbance (A) of the reference solution at 477 nm and the area percentage % (B) of the astaxanthin peak at the time of HPLC analysis under the above conditions. Astaxanthin concentration (mg/L)=A/2150×B×100
The strain E-396 (FERM BP-4283) was mutated with N-methyl-N′-nitro-N-nitrosoguanidine to select mutant strain colonies with red-purple color. Carotenoid compounds in their culture solutions were further analyzed by high performance liquid chromatography to select a strain L-25 specifically producing lycopene.
A medium of the following composition (sucrose 30 g/L, corn steep liquor 30 g/L, potassium dihydrogenphosphate 1.5 g/L, disodium hydrogenphosphate 12-hydrate 3.8 g/L, calcium chloride dihydrate 5.0 g/L, magnesium sulfate -hydrate 0.7 g/L, iron sulfate 7-hydrate 0.3 g/L, pH 7.2) was dispensed in 8 ml volumes into cotton-plugged test tubes having an inner diameter of 18 mm and sterilized in an autoclave at 121° C. for 15 minutes to prepare a test tube medium for seed culture.
Next, a medium of the following composition (glucose 30 g/L, filtered corn steep liquor 5 g/L, ammonium sulfate 1.5 g/L, potassium dihydrogenphosphate 1.5 g/L, disodium hydrogenphosphate 12-hydrate 3.8 g/L, calcium chloride dihydrate 5.0 g/L, magnesium sulfate 7-hydrate 0.7 g/L, iron sulfate 7-hydrate 0.6 g/L, ester-based defoaming agent 0.2 g/L) was dispensed in 8 ml volumes into cotton-plugged test tubes having an inner diameter of 18 mm (2 tubes in total). One of the test tubes was supplemented with monosodium L-glutamate monohydrate to 30 mmol/L, while the other was supplemented with nothing as a control. Finally, the mediums in the tubes were adjusted to pH 7.1 with aqueous ammonia and then sterilized in an autoclave at 121° C. for 20 minutes.
The Paracoccus sp. strain L-25 selected above was inoculated, into the test tube medium for seed culture and then cultured with shaking at 28° C. for 2 days at 300 spin. The resulting culture solution was then inoculated in 0.1 ml volumes into the two test tube mediums and cultured with shaking at 28° C. for 3 days at 300 spm. Each culture solution was measured for its carotenoid concentration by HPLC.

[2] = system: mutant Paracoccus sp. strain Y-1071; assay: Glutamate supplementation, 5 L fermentation tank culture, carotenoid by HPLC; assay type: cell-based
Description: as §1, §2
A medium of the following composition (sucrose 20 g/L, filtered corn steep liquor 5 g/L, potassium dihydrogenphosphate 0.54 g/L, dipotassium hydrogenphosphate 12-hydrate 2.78 g/L, calcium chloride dihydrate 5.0 g/L, magnesium sulfate 7-hydrate 0.7 g/L, iron sulfate 7-hydrate 3.0 g/L, fatty acid-based defoaming agent 0.2 g/L, […]) was dispensed in 100 ml volumes into 500 mL cotton-plugged Erlenmeyer flasks and sterilized in an autoclave at 121° C. for 15 minutes to prepare a flask medium for seed culture in 2 flasks,
Next, a medium of the following composition (sucrose 40 g/L, corn steep liquor 30 g/L, ammonium sulfate 0.5 g/L, potassium dihydrogenphosphate 2.25 g/L, disodium hydrogenphosphate 12-hydrate 5.7 g/L, calcium chloride dihydrate 0.1 g/L, magnesium sulfate 7-hydrate 0.5 g/L, iron sulfate 7-hydrate 5 g/L, fatty acid-based defoaming agent 0.5 g/L) was dispensed in 2.0 L volumes into 5 L fermentation tanks (2 tanks in total). One of the fermentation tanks was supplemented with monosodium L-glutamate monohydrate to 50 mmol/L, while the other was supplemented with nothing as a control. These fermentation tanks were sterilized in an autoclave at 121° C. for 30 minutes,
A loopful of the mutant Paracoccus sp, strain Y-1071 selected in Example 3 was inoculated into the flask medium for seed culture and then cultured with rotary shaking at 28° C. for 2 days at 150 rpm. The resulting culture solution was then inoculated in 80 mL volumes into the individual fermentation tanks, followed by aerobic culture at 28° C. at an aeration volume of 1 vvm for 120 hours. […] during culture, the pH was continuously controlled with 15% aqueous ammonia. Glucose was added in an amount of 30 g on day 1, day 2 and day 3 of culture to prevent glucose depletion. The minimum number of agitation rotations was set to 100 rpm, and the number of agitation rotations was varied such that the dissolved oxygen concentration in the culture solution was maintained at 2 to 3 ppm. Bubbling was detected with a bubble sensor and suppressed by automatic addition of a fatty acid-based defoaming agent.
At the completion of culture, each culture solution was measured for its carotenoid concentration by HPLC.

[3] = Glutamic acid concentration 30 mmol/L, 28° C. for 3 days
[4] = Glutamic acid concentration 50 mmol/L, 120 hours

Question: How did the “produced carotenoid concentration compared to the sample without glutamic acid” value ([1]; 30 mmol/L) turn out when N[C@@H](CCC(=O)O)C(=O)O [Glutamic acid, glutamic acid] was run?
Answer: Its value is “higher produced carotenoid concentration”.

Question: What about the Adonixanthin [1, 3] of the same compound?
Answer: Its Adonixanthin is 0.3 mg/L.

Question: What about the Astaxanthin [1, 3] of the same compound?
Answer: The Astaxanthin was 0.3 mg/L.

Question: And the Lycopene [1, 3]?
Answer: Its Lycopene is 19.6 mg/L.

Question: And the “Total carotenoid” value [1, 3]?
Answer: Its value is 20.2 mg/L.

Question: And the “produced carotenoid concentration compared to the sample without glutamic acid” value ([2]; 50 mmol/L)?
Answer: The value was “higher produced carotenoid concentration”.

Question: And the 3-Hydroxyechinenone [2, 4]?
Answer: Its 3-Hydroxyechinenone is 10 mg/L.

Question: What about the Adonixanthin [2, 4] of the same compound?
Answer: The Adonixanthin was 158 mg/L.

Question: And the Astaxanthin [2, 4]?
Answer: Its Astaxanthin is 805 mg/L.

Question: What about the Asteroidenone [2, 4] of the same compound?
Answer: The Asteroidenone was 9 mg/L.

Question: What about the Canthaxanthin [2, 4] of the same compound?
Answer: Its Canthaxanthin is 101 mg/L.

Question: And the Echinenone [2, 4]?
Answer: Its Echinenone is 62 mg/L.

Question: And the Phoenicoxanthin [2, 4]?
Answer: Its Phoenicoxanthin is 217 mg/L.

Question: What about the “Total carotenoid” value [2, 4] of the same compound?
Answer: Its value is 1458 mg/L.

Question: And the Zeaxanthin [2, 4]?
Answer: Its Zeaxanthin is 3 mg/L.

Question: What about the β-Carotene [2, 4] of the same compound?
Answer: Its β-Carotene is 93 mg/L.

Question: What about the β-Cryptoxanthin [2, 4] of the same compound?
Answer: The β-Cryptoxanthin was 0.5 mg/L.
